# Results published in ChEMBL document CHEMBL1156814, “Highly suppressing wild-type HIV-1 and Y181C mutant HIV-1 strains by 10-chloromethyl-11-demethyl-12-oxo-calanolide A with druggable profile” (J Med Chem, 2010).
# Tests used:
# [1] = tested on: Human immunodeficiency virus 1; assay: Antiviral activity against 100 TCID50 HIV1 infected in human TZM-b1 cells assessed as inhibition of viral replication by pseudovirus based assay; assay type: functional, organism-based
# [2] = Toxicity in African green monkey Vero cells; assay type: cell-based; details: chlorocebus sabaeus
# [3] = Selectivity index, ratio of IC50 for African green monkey Vero cells to EC50 for HIV1; assay type: toxicity, cell-based; details: read-out: Selectivity Index
# [4] = Human immunodeficiency virus 1, TZM-b1, read-out: EC50
"EC50 [1, 4] [µM]",EC50 ([1]; tzm-b1),SMILES,further results
0.18,–,CCCc1cc(=O)oc2c3c(c4c(c12)OC(C)(C)C=C4)OC(CBr)CC3=O (configuration not stated),–
–,Not Active,CCCc1cc(=O)oc2c3c(c4c(c12)OC(C)(C)C=C4)OC(CNC(=O)Nc1ccc(F)cc1)CC3=O (configuration not stated),–
–,Not Active,CCCc1cc(=O)oc2c3c(c4c(c12)OC(C)(C)C=C4)OC(CNC(=O)Nc1ccccc1OC)CC3=O (configuration not stated),–
0.456,–,CCCc1cc(=O)oc2c3c(c4c(c12)OC(C)(C)C=C4)OC(CSC)CC3=O (configuration not stated),–
–,Not Active,CCCc1cc(=O)oc2c3c(c4c(c12)OC(C)(C)C=C4)OC(CN1CCCC1)CC3=O (configuration not stated),–
0.18,–,CCCc1cc(=O)oc2c3c(c4c(c12)OC(C)(C)C=C4)OC(COC)CC3=O (configuration not stated),CC50 [2]: 9.89 µM; selectivity ratio [3]: 39.7
14.4,–,CCCc1cc(=O)oc2c3c(c4c(c12)OC(C)(C)C=C4)OC(C[S+](C)[O-])CC3=O (configuration not stated),–
33.9,–,CCCc1cc(=O)oc2c3c(c4c(c12)OC(C)(C)C=C4)OC(CS(C)(=O)=O)CC3=O (configuration not stated),–
–,Not Active,CCCc1cc(=O)oc2c3c(c4c(c12)OC(C)(C)C=C4)OC(CNS(=O)(=O)c1ccc(NC(C)=O)cc1)CC3=O (configuration not stated),–
–,Not Active,CCCc1cc(=O)oc2c3c(c4c(c12)OC(C)(C)C=C4)OC(CNS(=O)(=O)c1ccc(F)cc1)CC3=O (configuration not stated),–
